Assay results as given in patent publication US20160281050A1, “METHODS FOR TREATING A CULTURE OF HAEMATOCOCCUS PLUVIALIS FOR CONTAMINATION USING SALT AND HYDROGEN PEROXIDE” (HELIAE DEVELOPMENT LLC, priority 2015, published 2016).
Like-named read-outs stand apart in the source and are kept apart here.

Tests used:
[1] = tested on: chytrids; assay: % chytrid infection in flasks, salt treatment (Example 12); type: cell-based
Method: This test was done side by side in flasks (0.1 L) and in reactors located in a greenhouse operating in conditions: reactor volume of 230 L; Daily PAR of 20 mol m^−2 d^−1; pH (not measured); and paddlewheel speed of 21 RPM. […] The flask cultures were mixed by shaking at 140 rpm and received 300-400 μmol/m^2 s of photosynthetically active radiation (PAR) in 12 hour light cycles and constant supply of 2.5% CO2. The motility of the culture was monitored by visual observation under a microscope. […] Nine 230 L reactors were also seeded with culture from bioreactor #2410 on the same day as the flasks and brought to 2 ppt concentration of salt. Once motility of the cells was reduced to <10% (day 3 of culture for flasks and day 2 for 230 L reactors) the level of salt was elevated to a point between 4-18 ppt and compared to the culture in two reactors remaining at 2 ppt salt. Flasks and 230 L reactors were monitored for percentage of cell lysis via visual observation under a microscope, culture dry weight (biomass accumulation in g/L), and percentage of chytrid infection via visual observation under a microscope. Carotenoid production, a proxy for determining astaxanthin, was quantified every other day of culture in the 230 L reactors using the UV method.

[2] = tested on: chytrids
Description: Culture samples of Haematococcus pluvialis (Strain 2) were collected on the second day of culture from open raceway bioreactor #2410 operating in conditions: reactor volume of 150,000 L; Daily PAR of 9.77 mol m^−2 d^−1; pH of 7.3; and paddlewheel speed of 70%. Culture samples were distributed into flasks for culturing, consisting of duplicate untreated controls and duplicate treatments. […] Samples were taken from the flask cultures daily to quantify % lysis and % chytrid infection and cell dry weight was quantified every other day for a duration of 11 days.

[3] = tested on: chytrids; remark: listed apart in the source
Description: Culture samples of Haematococcus pluvialis (Strain 2) were collected on day 5 of the culture from open raceway bioreactor #2420 operating in conditions: reactor volume of 170,000 L; Daily PAR not measured; pH of 7.3; and paddlewheel speed of 70%). Culture samples were distributed into flasks for culturing, consisting of duplicate untreated controls and duplicate treatments. […] Samples were taken from the flask cultures every few days in order to quantify % lysis, % chytrid infection, and cell dry weight for a duration of about 11 days.

[4] = tested on: Haematococcus pluvialis (Strain 1) green swimmer cells; conditions: for % Lysis: samples from Bioreactor #2430 48 hours after transfer
Method: A series of experiments were conducted to determine if treating a culture of Haematococcus pluvialis with hydrogen peroxide prevents lysis.

[5] = tested on: Haematococcus pluvialis (Strain 1) green swimmer cells
Method: An experiment was conducted to determine if treating a culture of Haematococcus pluvialis with hydrogen peroxide affects the live bacteria count. […] The culture in bioreactor #2210 was treated with 0.33 mL/L hydrogen peroxide 3% stock concentration (calculated concentration of 0.0099 mL/L) every 6 hours for the duration of the culture's green swimmer stage (90 hours). The culture in bioreactor #2230 was not treated to serve as a control for comparison. Samples were taken to assess motility, lysis, and the live bacteria count in the cultures at 11, 34, 52, and 66 hours.

[Cl-].[Na+] [NaCl, sodium chloride]
% Chytrid infection in Flasks ([1]; 2 ppt, 9 d): 82 ± 17% | % Chytrid infection in Flasks ([1]; 2 ppt, 11 d): 96 ± 4% | % Chytrid infection in Flasks ([1]; 4 ppt, 9 d): 22 ± 20% | % Chytrid infection in Flasks ([1]; 4 ppt, 11 d): 85 ± 16% | % Chytrid infection in Flasks ([1]; 5 ppt, 9 d): 18 ± 16% | % Chytrid infection in Flasks ([1]; 5 ppt, 11 d): 53 ± 9% | % Chytrid infection in Flasks ([1]; 6 ppt, 9 d): 8 ± 11% | % Chytrid infection in Flasks ([1]; 6 ppt, 11 d): 19 ± 27% | % Chytrid infection in Flasks ([1]; 7 ppt, 9 d): 3 ± 5% | % Chytrid infection in Flasks ([1]; 7 ppt, 11 d): 0 ± 0% | % Chytrid infection in Flasks ([1]; 8 ppt, 9 d): 1 ± 1% | % Chytrid infection in Flasks ([1]; 8 ppt, 11 d): 2 ± 2% | % Chytrid infection in Flasks ([1]; 9 ppt, 9 d): 1 ± 1% | % Chytrid infection in Flasks ([1]; 9 ppt, 11 d): 1 ± 1% | % Chytrid infection in Flasks ([1]; 10 ppt, 9 d): 0 ± 0% | % Chytrid infection in Flasks ([1]; 10 ppt, 11 d): 0 ± 0% | % Chytrid infection in Flasks ([1]; 11 ppt, 9 d): 0 ± 0% | % Chytrid infection in Flasks ([1]; 11 ppt, 11 d): 17 ± 24% | chytrid infection ([1]; treatments between 7-10 ppt in flasks): 5-10%

hydrogen peroxide [H2O2]
% Chytrid infection ([2]; 0.0105 mL/L 1 time daily for 3 days, day 1): 0.0 ± 0.0% | % Chytrid infection ([2]; 0.0105 mL/L 1 time daily for 3 days, day 2): 0.0 ± 0.0% | % Chytrid infection ([2]; 0.0105 mL/L 1 time daily for 3 days, day 3): 0.0 ± 0.0% | % Chytrid infection ([2]; 0.0105 mL/L 1 time daily for 3 days, day 4): 0.0 ± 0.0% | % Chytrid infection ([2]; 0.0105 mL/L 1 time daily for 3 days, day 5): 0.8 ± 1.2% | % Chytrid infection ([2]; 0.0105 mL/L 1 time daily for 3 days, day 6): 0.0 ± 0.0% | % Chytrid infection ([2]; 0.0105 mL/L 1 time daily for 3 days, day 7): 1.7 ± 2.4% | % Chytrid infection ([2]; 0.0105 mL/L 1 time every other day, day 1): 0.0 ± 0.0% | % Chytrid infection ([2]; 0.0105 mL/L 1 time every other day, day 2): 0.0 ± 0.0% | % Chytrid infection ([2]; 0.0105 mL/L 1 time every other day, day 3): 2.5 ± 1.2% | % Chytrid infection ([2]; 0.0105 mL/L 1 time every other day, day 4): 0.0 ± 0.0% | % Chytrid infection ([2]; 0.0105 mL/L 1 time every other day, day 5): 0.8 ± 1.2% | % Chytrid infection ([2]; 0.0105 mL/L 1 time every other day, day 6): 3.3 ± 0.0% | % Chytrid infection ([2]; 0.0105 mL/L 1 time every other day, day 7): 0.8 ± 1.2% | % Chytrid infection ([2]; 0.0105 mL/L 1 time per day, day 1): 0.0 ± 0.0% | % Chytrid infection ([2]; 0.0105 mL/L 1 time per day, day 2): 0.0 ± 0.0% | % Chytrid infection ([2]; 0.0105 mL/L 1 time per day, day 3): 0.0 ± 0.0% | % Chytrid infection ([2]; 0.0105 mL/L 1 time per day, day 4): 0.0 ± 0.0% | % Chytrid infection ([2]; 0.0105 mL/L 1 time per day, day 5): 2.5 ± 3.5% | % Chytrid infection ([2]; 0.0105 mL/L 1 time per day, day 6): 0.0 ± 0.0% | % Chytrid infection ([2]; 0.0105 mL/L 1 time per day, day 7): 0.0 ± 0.0% | chytrid infection ([2]; all treated flasks, 0.0105 mL/L): below 5% | % Chytrid infection ([3]; 0.0105 mL/L 3 times per day (discontinued day 5), day 6): 2.5 ± 1.2% | % Chytrid infection ([3]; 0.0105 mL/L 3 times per day (discontinued day 5), day 9): 7.5 ± 3.5% | % Chytrid infection ([3]; 0.0105 mL/L 3 times per day (discontinued day 5), day 11): 100.0 ± 0.0% | % Chytrid infection ([3]; 0.0105 mL/L 3 times per day, day 0): 0.0 ± 0.0% | % Chytrid infection ([3]; 0.0105 mL/L 3 times per day, day 3): 0.8 ± 1.2% | % Chytrid infection ([3]; 0.0105 mL/L 3 times per day, day 4): 2.5 ± 3.5% | % Chytrid infection ([3]; 0.0105 mL/L 3 times per day, day 5): 1.7 ± 0.0% | % Chytrid infection ([3]; 0.0140 mL/L 1 time per day (discontinued day 5), day 6): 2.5 ± 1.2% | % Chytrid infection ([3]; 0.0140 mL/L 1 time per day (discontinued day 5), day 9): 0.0 ± 0.0% | % Chytrid infection ([3]; 0.0140 mL/L 1 time per day (discontinued day 5), day 11): 35.8 ± 29.5% | % Chytrid infection ([3]; 0.0140 mL/L 1 time per day, day 0): 0.0 ± 0.0% | % Chytrid infection ([3]; 0.0140 mL/L 1 time per day, day 3): 0.0 ± 0.0% | % Chytrid infection ([3]; 0.0140 mL/L 1 time per day, day 4): 0.0 ± 0.0% | % Chytrid infection ([3]; 0.0140 mL/L 2 times per day (discontinued day 5), day 6): 5.8 ± 3.5% | % Chytrid infection ([3]; 0.0140 mL/L 2 times per day (discontinued day 5), day 9): 43.3 ± 4.7% | % Chytrid infection ([3]; 0.0140 mL/L 2 times per day (discontinued day 5), day 11): 97.5 ± 3.5% | % Chytrid infection ([3]; 0.0140 mL/L 2 times per day, day 0): 0.0 ± 0.0% | % Chytrid infection ([3]; 0.0140 mL/L 2 times per day, day 3): 2.5 ± 1.2% | % Chytrid infection ([3]; 0.0140 mL/L 2 times per day, day 4): 2.5 ± 3.5% | % Chytrid infection ([3]; 0.0140 mL/L 2 times per day, day 5): 5.0 ± 4.7% | % Chytrid infection ([3]; 0.0140 mL/L 3 times per day (discontinued day 5), day 6): 0.0 ± 0.0% | % Chytrid infection ([3]; 0.0140 mL/L 3 times per day (discontinued day 5), day 9): 0.0 ± 0.0% | % Chytrid infection ([3]; 0.0140 mL/L 3 times per day (discontinued day 5), day 11): 11.7 ± 16.5% | % Chytrid infection ([3]; 0.0140 mL/L 3 times per day, day 0): 0.0 ± 0.0% | % Chytrid infection ([3]; 0.0140 mL/L 3 times per day, day 3): 3.3 ± 4.7% | % Chytrid infection ([3]; 0.0140 mL/L 3 times per day, day 4): 0.0 ± 0.0% | % Chytrid infection ([3]; 0.0140 mL/L 3 times per day, day 5): 0.0 ± 0.0% | % Chytrid infection ([3]; 0.0175 mL/L 1 time per day (discontinued day 5), day 6): 0.0 ± 0.0% | % Chytrid infection ([3]; 0.0175 mL/L 1 time per day (discontinued day 5), day 9): 0.0 ± 0.0% | % Chytrid infection ([3]; 0.0175 mL/L 1 time per day (discontinued day 5), day 11): 34.2 ± 27.1% | % Chytrid infection ([3]; 0.0175 mL/L 1 time per day, day 0): 0.0 ± 0.0% | % Chytrid infection ([3]; 0.0175 mL/L 1 time per day, day 3): 0.8 ± 1.2% | % Chytrid infection ([3]; 0.0175 mL/L 1 time per day, day 4): 1.7 ± 0.0% | % Chytrid infection ([3]; 0.0175 mL/L 1 time per day, day 5): 1.7 ± 0.0% | chytrid infection ([3]; all treated flasks, until 4-6 days after treatment ended): less than 10% | lysis level with the hydrogen peroxide treatments ([4]; Tables 6 and 7, 0.007 mL/L three times per day): less than 30% | % Lysis (±1SD) ([4]; samples from Bioreactor #2330, 0.007 mL/L three times per day, 0 h): 8.3 ± 7.6% | % Lysis (±1SD) ([4]; samples from Bioreactor #2330, 0.007 mL/L three times per day, 24 h): 10.0 ± 4.7% | % Lysis (±1SD) ([4]; samples from Bioreactor #2330, 0.007 mL/L three times per day, 48 h): 12.5 ± 3.5% | % Lysis (±1SD) ([4]; samples from Bioreactor #2330, 0.007 mL/L three times per day, 72 h): 0.0 ± 0.0% | % Lysis (±1SD) ([4]; samples from Bioreactor #2330, 0.007 mL/L three times per day, 120 h): 0.8 ± 1.2% | % Lysis (±1SD) ([4]; samples from Bioreactor #2430 24 hours after transfer, 0.007 mL/L three times per day, 0 h): 0.0 ± 0.0% | % Lysis (±1SD) ([4]; samples from Bioreactor #2430 24 hours after transfer, 0.007 mL/L three times per day, 24 h): 7.5 ± 1.2% | % Lysis (±1SD) ([4]; samples from Bioreactor #2430 24 hours after transfer, 0.007 mL/L three times per day, 48 h): 0.0 ± 0.0% | % Lysis (±1SD) ([4]; samples from Bioreactor #2430 24 hours after transfer, 0.007 mL/L three times per day, 96 h): 4.1 ± 1.2% | % Lysis ([4]; 0.007 mL/L three times per day, 0 h): 3.3 ± 2.9% | % Lysis ([4]; 0.007 mL/L three times per day, 24 h): 25.0 ± 9.4% | % Lysis ([4]; 0.007 mL/L three times per day, 96 h): 16.7 ± 4.7% | reduction of lysis ([4]; vs control cultures, Tables 6 and 7): 60-80% | Motility [5]: above 60% | lysis [5]: ≤ 15%
